The structures appear in SMILES notation. Bounds are passed on as bounds.

The term melting point denotes the temperature of the solid-liquid transition. As to `COP(=O)(OC)C(c1ccc(F)cc1)(c1ccc(F)cc1)c1ccc(F)cc1`, the melting point came out at 131.6 °C.

The compound `COP(=O)(OC)C(c1ccc(F)cc1)(c1ccccc1F)c1ccccc1Cl` (centres unmarked) had a melting point of 131.5 to 132.5 °C. Then `COP(=O)(OC)C(c1ccc(F)cc1)(c1ccc(F)cc1)c1ccc(Cl)cc1`, with 136 to 137 °C; and `COP(=O)(OC)C(c1ccc(F)cc1)(c1ccc(F)cc1)c1ccccc1F`, with 136.6 °C.

`Fc1ccc(C(OP2OCCO2)(c2ccc(F)cc2)c2ccccc2F)cc1` yielded a melting point of 163 to 164 °C.

For the compound `Fc1ccc(C(OP2OCCO2)(c2ccc(F)cc2)c2ccc(F)cc2)cc1`, the melting point lay in the range of 195 to 196 °C. The figure for `O=[N+]([O-])c1ccc(OC(c2ccc(F)cc2)(c2ccc(F)cc2)c2nccs2)cc1C(F)(F)F` [Compound 1, 2-[Bis-(4-fluoro-phenyl)-(4-nitro-3-trifluoromethyl-phenoxy)-methyl]-thiazole] is 88.6 to 89.5 °C; for `C=CCC(C#N)(c1ccc(F)cc1)c1ccccc1F` (centres unmarked) [Compound 4, 2-(2-Fluoro-phenyl)-2-(4-fluoro-phenyl)-pent-4-enenitrile] it is 215 to 219 °C; for `Cn1ccnc1SC(c1ccc(F)cc1)(c1ccc(F)cc1)c1ccc(F)cc1` [Compound 5-11, 1-Methyl-2-[tris-(4-fluorophenyl)-methylsulfanyl]-1H-imidazole] it is 135.5 to 140.5 °C.

In turn, `[O-][n+]1ccccc1SC(c1ccc(F)cc1)(c1ccc(F)cc1)c1ccc(F)cc1` [Compound 5-13, 2-[Tris-(4-fluorophenyl)-methylsulfanyl]-pyridine-N-oxide] showed a melting point of 147.7 to 151.8 °C. `CCN(CC)C(=O)CSC(c1ccc(F)cc1)(c1ccc(F)cc1)c1ccccc1F` [Compound 5-14, 2-[Bis-(4-fluoro-phenyl)-(2-fluoro-phenyl)-methylsulfanyl]-N,N-diethyl-acetamide] came in with a melting point of 122 to 123 °C.

`CN(C(=O)CSC(c1ccc(F)cc1)(c1ccc(F)cc1)c1ccccc1F)c1ccccc1` [Compound 5-15, 2-[Bis-(4-fluoro-phenyl)-(2-fluoro-phenyl)-methylsulfanyl]-N-methyl-N-phenyl-acetamide]: the melting point lay within 120 to 121 °C. Then `O=C(CSC(c1ccc(F)cc1)(c1ccc(F)cc1)c1ccccc1F)N1CCCCC1` [Compound 5-16, 2-[Bis-(4-fluoro-phenyl)-(2-fluoro-phenyl)-methylsulfanyl]-1-piperidin-1-yl-ethanone], with 128 to 129 °C; and `NC(=O)CSC(c1ccc(F)cc1)(c1ccc(F)cc1)c1ccccc1F` [Compound 5-17, 2-[Bis-(4-fluoro-phenyl)-(2-fluoro-phenyl)-methylsulfanyl]-acetamide], with 119 to 120 °C; and `CC(SC(c1ccc(F)cc1)(c1ccc(F)cc1)c1ccccc1F)C(N)=O` (centres unmarked) [Compound 5-18, 2-[Bis-(4-fluoro-phenyl)-(2-fluoro-phenyl)-methylsulfanyl]-propionamide], with 133 to 134 °C. The figure for `N#CCSC(c1ccc(F)cc1)(c1ccc(F)cc1)c1ccccc1F` [Compound 5-19, [Bis-(4-fluoro-phenyl)-(2-fluoro-phenyl)-methylsulfanyl]-acetonitrile] is 111 to 112 °C; for `O=C(O)CSC(c1ccc(F)cc1)(c1ccc(F)cc1)c1ccccc1F` [Compound 5-20, [(2-Fluoro-phenyl)-bis-(4-fluoro-phenyl)-methylsulfanyl]-acetic acid] it is 112 to 113 °C; for `CC(C)C(C#N)(c1ccc(F)cc1)c1ccc(F)cc1` [Compound 6, 2,2-Bis-(4-fluoro-phenyl)-3-methyl-butyronitrile] it is 142.3 to 147 °C.

The compound `CS(=O)(=O)C(c1ccc(F)cc1)(c1ccc(F)cc1)c1ccc(F)cc1` [Compound 7-1, Methyl tris(4-fluorophenyl)methyl sulfone] returned a melting point of 140.6 to 145.3 °C. Then `O=S(=O)(c1ccccc1)C(c1ccc(F)cc1)(c1ccc(F)cc1)c1ccc(F)cc1` [Compound 7-7, Phenyl tris(4-fluorophenyl)methyl sulfone], with 157.4 to 160.6 °C; and `CS(=O)(=O)C(c1ccc(F)cc1)(c1ccc(F)cc1)c1ccccc1F` [Compound 7-14, Methanesulphonyl-2-fluorophenyl-bis-(4-fluoro-phenyl) methane], with 147 to 149 °C; and `O=P(O)(O)C(c1ccc(F)cc1)(c1ccc(F)cc1)c1ccccc1F` [Compound 10-14, [Bis-(4-fluoro-phenyl)-(2-fluoro-phenyl)-methyl]-phosphonic acid], with 228 to 230 °C.

As to `Cc1ccc(C(c2ccc(F)cc2)(c2ccc(F)cc2)P(=O)(O)O)cc1` [Compound 10-15, [Bis-(4-fluoro-phenyl)-p-tolyl-methyl]-phosphonic acid], the melting point was 240 °C (dec.).

As to `N#CC(c1ccc(F)cc1)(c1ccc(F)cc1)C(c1ccccc1)c1ccccc1` [Compound 12, 2,2-Bis-(4-fluoro-phenyl)-3,3-diphenyl-propionitrile], the melting point is 208 to 212.5 °C. `N#CC(c1ccc(F)cc1)(c1ccccc1F)C(c1ccccc1)c1ccccc1` (centres unmarked) [Compound 13, 2-(2-Fluoro-phenyl)-2-(4-fluoro-phenyl)-3,3-diphenyl-propionitrile] had a melting point of 210 to 215.3 °C.

Consider `CC(=O)C(C#N)(c1ccc(F)cc1)c1ccc(F)cc1` [Compound 18, 2,2-Bis-(4-fluoro-phenyl)-3-oxo-butyronitrile], for which the melting point was under 50 °C. As to `COC(=O)C(C#N)(c1ccc(F)cc1)c1ccccc1F` (centres unmarked) [Compound 22, Cyano-(4-fluoro-phenyl)-(2-fluoro-phenyl)-acetic acid methyl ester], the melting point fell in the range of 104 to 105 °C. The figure for `N#CCC(C#N)(c1ccc(F)cc1)c1ccc(F)cc1` [Compound 24, 2,2-Bis-(4-fluoro-phenyl)-succinonitrile] is 93 to 94 °C; for `CCOC(=O)C(C(=O)OCC)C(C#N)(c1ccc(F)cc1)c1ccc(F)cc1` [Compound 27, 2-[Cyano-bis-(4-fluoro-phenyl)-methyl]-malonic acid diethyl ester] it is 117 to 119 °C.

These data come from US7429618B2, “Potassium channel modulators” (Neurosearch A/S, priority 2002, dated 2008).
